Assay results as given in patent US5168100A, “HP530 compounds and process for preparing the same” (Sapporo Breweries Limited, priority 1990, dated 1992).
Values after ≈ are worked out from the molar mass of the structure shown.

System: Proteus vulgaris JCM1668
Assay: Antimicrobial activity (MIC), Proteus vulgaris
Type: cell-based
Conditions: not given
Excerpt: (§1) The minimum inhibitory concentrations (MIC's) of the HP530 compounds and their derivatives of the invention against bacteria and fungi are shown in Table 2.

SMILES | MIC [µg/mL]
CC=CC1OC1(C)c1cc(=O)c2c(C)cc3c(c2o1)C(=O)c1c(ccc(C2CC(C)(N(C)C)C(OC(C)=O)C(C)O2)c1O)C3=O (stereo not drawn) [HP530D] | > 100

System: Bacillus subtilis H17Rec^+
Assay: Antimicrobial activity (MIC), Bacillus subtilis H17Rec^+
Type: cell-based
Conditions: not given
Excerpt: as §1

SMILES | MIC [µg/mL]
CC=CC1OC1(C)c1cc(=O)c2c(C)cc3c(c2o1)C(=O)c1c(ccc(C2CC(C)(N(C)C)C(OC(C)=O)C(C)O2)c1O)C3=O (stereo not drawn) [HP530D] | 3.2 (≈ 5.2 µM)

System: Saccharomyces cerevisiae JCM1499
Assay: Antimicrobial activity (MIC), Saccharomyces cerevisiae
Type: cell-based
Conditions: not given
Excerpt: as §1

SMILES | MIC [µg/mL]
CC=CC1OC1(C)c1cc(=O)c2c(C)cc3c(c2o1)C(=O)c1c(ccc(C2CC(C)(N(C)C)C(OC(C)=O)C(C)O2)c1O)C3=O (stereo not drawn) [HP530D] | 6.3 (≈ 10.2 µM)

System: Xanthomonas maltophilia JCM1975
Assay: Antimicrobial activity (MIC), Xanthomonas maltophilia
Type: cell-based
Conditions: Stenotrophomonas maltophilia
Excerpt: as §1

SMILES | MIC [µg/mL]
CC=CC1OC1(C)c1cc(=O)c2c(C)cc3c(c2o1)C(=O)c1c(ccc(C2CC(C)(N(C)C)C(OC(C)=O)C(C)O2)c1O)C3=O (stereo not drawn) [HP530D] | 3.2 (≈ 5.2 µM)

System: not listed separately
Assay: Solubility
Conditions: ethyl acetate, acetone, n-hexane

SMILES | Solubility
CC=CC1OC1(C)c1cc(=O)c2c(C)cc3c(c2o1)C(=O)c1c(ccc(C2CC(C)(N(C)C)C(OC(C)=O)C(C)O2)c1O)C3=O (stereo not drawn) [HP530D] | hardly soluble in ethyl acetate, acetone and n-hexane

Same assay, conditions: solvents in which soluble (acidic water, organic solvents)

SMILES | Solubility
CC=CC1OC1(C)c1cc(=O)c2c(C)cc3c(c2o1)C(=O)c1c(ccc(C2CC(C)(N(C)C)C(OC(C)=O)C(C)O2)c1O)C3=O (stereo not drawn) [HP530D] | Soluble in acidic water, methanol and chloroform

Same assay, conditions: water

SMILES | Solubility
CC=CC1OC1(C)c1cc(=O)c2c(C)cc3c(c2o1)C(=O)c1c(ccc(C2CC(C)(N(C)C)C(OC(C)=O)C(C)O2)c1O)C3=O (stereo not drawn) [HP530D] | insoluble in water

System: mouse fibrosarcoma Meth-A cell line
Assay: Antitumor activity, increase in life span of CDF1 mice inoculated with Meth-A cells
Type: in vivo
Conditions: 0.25 mg/kg i.p. once a day, day 1-4
Excerpt: 1) CDF1 mice were inoculated intraperitoneally with 1×10^6 cells of mouse fibrosarcoma Meth-A cell line on day 0. HP530 compounds and their derivatives dissolved in a physiological salt solution were administrated intraperitoneally once a day on day 1-4. Increase in life span is represented by the percentage of the ratio of the mean number of surviving days (T) of the treated groups of mice to the mean number of surviving days (C) of the untreated groups of mice.

SMILES | Antitumor Activity T/C [%]
CC=CC1OC1(C)c1cc(=O)c2c(C)cc3c(c2o1)C(=O)c1c(ccc(C2CC(C)(N(C)C)C(OC(C)=O)C(C)O2)c1O)C3=O (stereo not drawn) [HP530D] | 108

Same assay, conditions: 0.5 mg/kg i.p. once a day, day 1-4

SMILES | Antitumor Activity T/C [%]
CC=CC1OC1(C)c1cc(=O)c2c(C)cc3c(c2o1)C(=O)c1c(ccc(C2CC(C)(N(C)C)C(OC(C)=O)C(C)O2)c1O)C3=O (stereo not drawn) [HP530D] | 123

Same assay, conditions: 1.0 mg/kg i.p. once a day, day 1-4

SMILES | Antitumor Activity T/C [%]
CC=CC1OC1(C)c1cc(=O)c2c(C)cc3c(c2o1)C(=O)c1c(ccc(C2CC(C)(N(C)C)C(OC(C)=O)C(C)O2)c1O)C3=O (stereo not drawn) [HP530D] | 192

Same assay, conditions: 2.0 mg/kg i.p. once a day, day 1-4

SMILES | Antitumor Activity T/C [%]
CC=CC1OC1(C)c1cc(=O)c2c(C)cc3c(c2o1)C(=O)c1c(ccc(C2CC(C)(N(C)C)C(OC(C)=O)C(C)O2)c1O)C3=O (stereo not drawn) [HP530D] | > 215

System: CDF1 mice
Assay: Acute toxicity in CDF1 mice
Type: in vivo, mouse
Conditions: 10 mg/kg, intraperitoneal, three CDF1 mice

SMILES | Acute toxicity
CC=CC1OC1(C)c1cc(=O)c2c(C)cc3c(c2o1)C(=O)c1c(ccc(C2CC(C)(N(C)C)C(OC(C)=O)C(C)O2)c1O)C3=O (stereo not drawn) [HP530D] | no toxicity

System: Salmonella typhimurium TA1535
Assay: Antimicrobial activity (MIC), Salmonella typhimurium
Type: cell-based
Conditions: Salmonella enterica
Excerpt: as §1

SMILES | MIC [µg/mL]
CC=CC1OC1(C)c1cc(=O)c2c(C)cc3c(c2o1)C(=O)c1c(ccc(C2CC(C)(N(C)C)C(OC(C)=O)C(C)O2)c1O)C3=O (stereo not drawn) [HP530D] | 1.6 (≈ 2.6 µM)

System: W98 cell line
Assay: Cytotoxicity (IC100) against W98 cell line
Type: cell-based
Conditions: Homo sapiens; W98 cells, final 10% methanol solutions; read-out: IC100 (100% growth inhibiting concentration)
Experimental: 2) Cytotoxicity (IC100) against W98 cell line obtained by converting the lung cells of a human emryo by an SV40 virus was examined in the following way. When the HP530 compounds and their derivatives dissolved in methanol were added to culture solutions in such a manner that the culture solutions were prepared final 10% methanol solutions, the cytotoxicity of the HP530 compounds and their derivatives against the growth of the W98 cells in the culture solution was measured as 100% growth inhibiting concentration (IC100).

SMILES | IC100 [µg/mL]
CC=CC1OC1(C)c1cc(=O)c2c(C)cc3c(c2o1)C(=O)c1c(ccc(C2CC(C)(N(C)C)C(OC(C)=O)C(C)O2)c1O)C3=O (stereo not drawn) [HP530D] | 0.0006

System: Micrococcus luteus JCM1464
Assay: Antimicrobial activity (MIC), Micrococcus luteus
Type: cell-based
Conditions: not given
Excerpt: as §1

SMILES | MIC [µg/mL]
CC=CC1OC1(C)c1cc(=O)c2c(C)cc3c(c2o1)C(=O)c1c(ccc(C2CC(C)(N(C)C)C(OC(C)=O)C(C)O2)c1O)C3=O (stereo not drawn) [HP530D] | 1.6 (≈ 2.6 µM)

System: Staphylococcus epidermidis JCM2414
Assay: Antimicrobial activity (MIC), Staphylococcus epidermidis
Type: cell-based
Conditions: not given
Excerpt: as §1

SMILES | MIC [µg/mL]
CC=CC1OC1(C)c1cc(=O)c2c(C)cc3c(c2o1)C(=O)c1c(ccc(C2CC(C)(N(C)C)C(OC(C)=O)C(C)O2)c1O)C3=O (stereo not drawn) [HP530D] | 3.2 (≈ 5.2 µM)

System: Klebsiella pneumoniae JCM1662
Assay: Antimicrobial activity (MIC), Klebsiella pneumoniae
Type: cell-based
Conditions: not given
Excerpt: as §1

SMILES | MIC [µg/mL]
CC=CC1OC1(C)c1cc(=O)c2c(C)cc3c(c2o1)C(=O)c1c(ccc(C2CC(C)(N(C)C)C(OC(C)=O)C(C)O2)c1O)C3=O (stereo not drawn) [HP530D] | > 100

System: Bacillus subtilis M45Rec^-
Assay: Antimicrobial activity (MIC), Bacillus subtilis M45Rec^-
Type: cell-based
Conditions: not given
Excerpt: as §1

SMILES | MIC [µg/mL]
CC=CC1OC1(C)c1cc(=O)c2c(C)cc3c(c2o1)C(=O)c1c(ccc(C2CC(C)(N(C)C)C(OC(C)=O)C(C)O2)c1O)C3=O (stereo not drawn) [HP530D] | 0.4 (≈ 0.65 µM)

System: Escherichia coli JCM1649
Assay: Antimicrobial activity (MIC), Escherichia coli
Type: cell-based
Conditions: not given
Excerpt: as §1

SMILES | MIC [µg/mL]
CC=CC1OC1(C)c1cc(=O)c2c(C)cc3c(c2o1)C(=O)c1c(ccc(C2CC(C)(N(C)C)C(OC(C)=O)C(C)O2)c1O)C3=O (stereo not drawn) [HP530D] | > 100

System: Candida albicans JCM1542
Assay: Antimicrobial activity (MIC), Candida albicans
Type: cell-based
Conditions: not given
Excerpt: as §1

SMILES | MIC [µg/mL]
CC=CC1OC1(C)c1cc(=O)c2c(C)cc3c(c2o1)C(=O)c1c(ccc(C2CC(C)(N(C)C)C(OC(C)=O)C(C)O2)c1O)C3=O (stereo not drawn) [HP530D] | 100 (≈ 162 µM)

System: Staphylococcus aureus JCM2151
Assay: Antimicrobial activity (MIC), Staphylococcus aureus
Type: cell-based
Conditions: not given
Excerpt: as §1

SMILES | MIC [µg/mL]
CC=CC1OC1(C)c1cc(=O)c2c(C)cc3c(c2o1)C(=O)c1c(ccc(C2CC(C)(N(C)C)C(OC(C)=O)C(C)O2)c1O)C3=O (stereo not drawn) [HP530D] | 1.6 (≈ 2.6 µM)
